Assay results taken from patent EP3046573B1, “AMYLIN ANALOGUES” (Zealand Pharma A/S, priority 2013, dated 2015).
Read-outs that look alike come from different tables or passages of the source. Numbered stars: 1 amine (or outer) side, 2 acyl side, 3 side chain; on linkers, the order of the positions; unused ones are H or OH. Bridge positions count the residues as written; N and C are the ends. Square brackets hold non-standard residues; d marks the D form. Peptide text beside a SMILES is read from it. * marks the point of attachment. C20 diacid = O=C(O)CCCCCCCCCCCCCCCCCCC(=O)*; γGlu = O=C(O)[C@H](CCC(=O)[*:2])N[*:1]; NMeI = CC[C@H](C)[C@H](NC)C(=O)O; Sar = CNCC(=O)O

Experiments:
[1] = target: T1, human calcitonin receptor (hCTR2) (Homo sapiens, UniProt P30988); test: hCTR2 assay: induction of cAMP (AlphaScreen cAMP Assay kit) in COS7 cells expressing hCTR2; assay type: cell-based
T1 construct: expressed in transfected cells
T1 sequence (P30988 25-474): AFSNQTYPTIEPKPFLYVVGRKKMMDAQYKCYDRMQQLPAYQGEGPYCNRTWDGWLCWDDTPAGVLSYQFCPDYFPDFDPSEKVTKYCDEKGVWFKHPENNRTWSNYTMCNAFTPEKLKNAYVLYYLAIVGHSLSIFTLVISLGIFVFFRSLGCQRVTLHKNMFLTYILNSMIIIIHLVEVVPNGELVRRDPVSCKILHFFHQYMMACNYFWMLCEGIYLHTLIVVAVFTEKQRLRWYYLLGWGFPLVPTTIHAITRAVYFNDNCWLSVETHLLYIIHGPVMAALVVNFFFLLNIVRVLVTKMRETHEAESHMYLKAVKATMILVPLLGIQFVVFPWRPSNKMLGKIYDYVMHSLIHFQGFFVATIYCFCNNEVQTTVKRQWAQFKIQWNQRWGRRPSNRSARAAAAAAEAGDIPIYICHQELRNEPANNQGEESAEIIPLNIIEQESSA
In short: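 Functional agonism is measured as cAMP accumulation in a COS7 line stably transfected with hCTR2, lacking endogenous RAMPs. Peptides act for 15 min at 37° C with IBMX present, and curves are fitted with a 4-parameter logistic model.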

[2] = Solubility assessment (turbidity absorbance at 325 nm); assay type: physicochemical; details: stock 2 mg/ml diluted 1:1, ambient temperature (typically 25°C), n=1; for Solubility, Acetate buffer pH 4: 100 mM acetate buffer pH 4.0; for Solubility, Acetate buffer pH 5: 100 mM acetate buffer pH 5.0; for Solubility, Histidine buffer pH 6: 100 mM histidine buffer pH 6.0; for Solubility, Histidine buffer pH 7: 100 mM histidine buffer pH 7.0; for Solubility, Phosphate buffer pH 6: 100 mM phosphate buffer pH 6.0; for Solubility, Phosphate buffer pH 7: 100 mM phosphate buffer pH 7.0; for Solubility, Phosphate buffer pH 7.5: 100 mM phosphate buffer pH7.5
In short: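 Peptide stock (2 mg/ml) in water acidified to pH 2.5 with HCl was diluted 1:1 into 100 mM acetate (pH 4.0, 5.0), histidine (pH 6.0, 7.0) or phosphate (pH 6.0, 7.0, 7.5) buffer. A280 and A325 were read at about 25°C, n=1. A325 ≤ 0.02 meant solubility ≥ 1 mg/ml.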

[3] = target: T2, human amylin receptor 3 (hAMYR3) consisting of hCTR2 co-expressed with human Receptor Activity Modifying Protein 3 (hRAMP3) (Homo sapiens, UniProt O60896+P30988); test: hAMYR3 assay: induction of cAMP (AlphaScreen cAMP Assay kit) in COS7 cells expressing hAMYR3; assay type: cell-based
T2 construct: expressed in transfected cells
T2 sequence (P30988 25-474): T1 sequence (P30988 25-474)
T2 sequence (O60896 24-148 partner): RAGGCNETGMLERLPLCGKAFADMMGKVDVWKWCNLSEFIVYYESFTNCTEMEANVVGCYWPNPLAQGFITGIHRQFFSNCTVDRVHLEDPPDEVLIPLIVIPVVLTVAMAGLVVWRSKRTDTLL
In short: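 Stable COS7 clone co-expressing hCTR2 and hRAMP3, stimulated 15 min at 37° C with increasing peptide in Tyrode buffer pH 7.4 with 100 µM IBMX and 0.1% casein. cAMP measured by AlphaScreen after lysis; EC50 and % efficacy versus pramlintide from 4PL fit.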

[4] = cAMP induction in COS7 cells expressing hCTR2, average of a minimum of 3 determinations, read-out: hCTR2 EC50
[5] = cAMP induction in COS7 cells expressing hAMYR3, average of a minimum of 3 determinations, read-out: hAMY R3 EC50

With `CC[C@H](C)[C@@H](C(=O)N[C@@H](CC(C)C)C(=O)N[C@@H](CO)C(=O)N[C@@H](CO)C(=O)N[C@H](C(=O)N[C@@H](CCC(=O)O)C(=O)N[C@H](C(=O)NCC(=O)N[C@@H](CO)C(=O)N[C@@H](CCC(=O)O)C(=O)N[C@H](C(=O)N1CCC[C@H]1C(N)=O)[C@@H](C)O)C(C)C)[C@@H](C)O)N(C)C(=O)[C@H](C)NC(=O)CN(C)C(=O)[C@H](Cc1ccccc1)NC(=O)[C@H](CO)NC(=O)[C@H](CO)NC(=O)[C@H](CO)NC(=O)[C@H](CO)NC(=O)[C@H](CCCNC(=N)N)NC(=O)[C@H](Cc1c[nH]cn1)NC(=O)[C@H](CC(C)C)NC(=O)[C@H](Cc1ccccc1)NC(=O)[C@H](CCC(=O)O)NC(=O)[C@H](C)NC(=O)[C@H](CC(C)C)NC(=O)[C@H](CCCNC(=N)N)NC(=O)[C@H](C)NC(=O)[C@@H](NC(=O)[C@H](C)NC(=O)[C@@H]1CSSC[C@H](NC(=O)[C@H](CCCNC(=N)N)NC(=O)CC[C@H](NC(=O)CCCCCCCCCCCCCCCCCCC(=O)O)C(=O)O)C(=O)N[C@@H](CCC(=O)O)C(=O)N[C@@H]([C@@H](C)O)C(=O)N[C@@H](C)C(=O)N[C@@H]([C@@H](C)O)C(=O)N1)[C@@H](C)O` [Compound 146, [19CD]-isoGlu-RC()ETATC()ATARLAEFLHRSSSSF-Gly(Me)-A-Ile(Me)-LSSTEVGSETP-NH2] ({C20 diacid-γGlu}-RCETATCATARLAEFLHRSSSSF[Sar]A[NMeI]LSSTEVGSETP-NH2; disulfide 2-7) the EC50 [1, 4] was 0.092 nM, the “Solubility, Acetate buffer pH 4” value [2] was “SS (SS indicates solubility ≥ 1mg/ml)” and the “Solubility, Acetate buffer pH 5” value [2] was “SS (SS indicates solubility ≥ 1mg/ml)”. For the same molecule, the “Solubility, Histidine buffer pH 6” value [2] was “SS (SS indicates solubility ≥ 1mg/ml)”, the “Solubility, Histidine buffer pH 7” value [2] was “SS (SS indicates solubility ≥ 1mg/ml)” and the “Solubility, Phosphate buffer pH 6” value [2] was “SS (SS indicates solubility ≥ 1mg/ml)”. The “Solubility, Phosphate buffer pH 7” value [2] was “SS (SS indicates solubility ≥ 1mg/ml)”, the “Solubility, Phosphate buffer pH 7.5” value [2] was “SS (SS indicates solubility ≥ 1mg/ml)” and the EC50 [3] was 0.15 nM.

In the case of `CC[C@H](C)[C@@H](C(=O)N[C@@H](CC(C)C)C(=O)N[C@@H](CO)C(=O)N[C@@H](CO)C(=O)N[C@H](C(=O)N[C@@H](CCC(=O)O)C(=O)N[C@H](C(=O)NCC(=O)N[C@@H](CO)C(=O)N[C@@H](CCC(=O)O)C(=O)N[C@H](C(=O)N1CCC[C@H]1C(N)=O)[C@@H](C)O)C(C)C)[C@@H](C)O)N(C)C(=O)[C@H](C)NC(=O)CN(C)C(=O)[C@H](Cc1ccccc1)NC(=O)[C@H](CO)NC(=O)[C@H](CO)NC(=O)[C@H](CO)NC(=O)[C@H](CO)NC(=O)[C@H](CCCNC(=N)N)NC(=O)[C@H](Cc1c[nH]cn1)NC(=O)[C@H](CC(C)C)NC(=O)[C@H](Cc1ccccc1)NC(=O)[C@H](CCC(=O)O)NC(=O)[C@H](C)NC(=O)[C@H](CC(C)C)NC(=O)[C@H](CCCNC(=N)N)NC(=O)[C@H](C)NC(=O)[C@@H](NC(=O)[C@H](C)NC(=O)[C@@H]1CSSC[C@H](NC(=O)[C@H](CCCNC(=N)N)NC(=O)CC[C@H](NC(=O)CCCCCCCCCCCCCCCCCCC(=O)O)C(=O)O)C(=O)N2CCC[C@H]2C(=O)N[C@@H]([C@@H](C)O)C(=O)N[C@@H](C)C(=O)N[C@@H]([C@@H](C)O)C(=O)N1)[C@@H](C)O` [Compound 147, [19CD]-isoGlu-RC()PTATC()ATARLAEFLHRSSSSF-Gly(Me)-A-Ile(Me)-LSSTEVGSETP-NH2] ({C20 diacid-γGlu}-RCPTATCATARLAEFLHRSSSSF[Sar]A[NMeI]LSSTEVGSETP-NH2; disulfide 2-7), the EC50 [1] is reported as 0.16 nM, the “Solubility, Acetate buffer pH 4” value [2] is reported as “SS (SS indicates solubility ≥ 1mg/ml)” and the “Solubility, Acetate buffer pH 5” value [2] is reported as “II (II indicates solubility ≤ 1 mg/ml)”. The “Solubility, Histidine buffer pH 6” value [2] was “SS (SS indicates solubility ≥ 1mg/ml)”, the “Solubility, Histidine buffer pH 7” value [2] was “SS (SS indicates solubility ≥ 1mg/ml)” and the “Solubility, Phosphate buffer pH 6” value [2] was “SS (SS indicates solubility ≥ 1mg/ml)”. The “Solubility, Phosphate buffer pH 7” value [2] was “SS (SS indicates solubility ≥ 1mg/ml)”, the “Solubility, Phosphate buffer pH 7.5” value [2] was “SS (SS indicates solubility ≥ 1mg/ml)” and the EC50 [3, 5] was 0.16 nM.

In the case of `CC[C@H](C)[C@@H](C(=O)N[C@@H](CC(C)C)C(=O)N[C@@H](CO)C(=O)N[C@@H](CO)C(=O)N[C@H](C(=O)N[C@@H](CCC(=O)O)C(=O)N[C@H](C(=O)NCC(=O)N[C@@H](CO)C(=O)N[C@@H](CCC(=O)O)C(=O)N[C@H](C(=O)N1CCC[C@H]1C(N)=O)[C@@H](C)O)C(C)C)[C@@H](C)O)N(C)C(=O)[C@H](C)NC(=O)CN(C)C(=O)[C@H](Cc1ccccc1)NC(=O)[C@H](CO)NC(=O)[C@H](CO)NC(=O)[C@H](CO)NC(=O)[C@H](CO)NC(=O)[C@H](CCCNC(=N)N)NC(=O)[C@H](Cc1c[nH]cn1)NC(=O)[C@H](CC(C)C)NC(=O)[C@H](Cc1ccccc1)NC(=O)[C@H](CCC(=O)O)NC(=O)[C@H](C)NC(=O)[C@H](CC(C)C)NC(=O)[C@H](CCCNC(=N)N)NC(=O)[C@H](CC(=O)O)NC(=O)[C@@H](NC(=O)[C@H](C)NC(=O)[C@@H]1CSSC[C@H](NC(=O)[C@H](CCCNC(=N)N)NC(=O)CC[C@H](NC(=O)CCCCCCCCCCCCCCCCCCC(=O)O)C(=O)O)C(=O)N[C@@H](CO)C(=O)N[C@@H]([C@@H](C)O)C(=O)N[C@@H](C)C(=O)N[C@@H]([C@@H](C)O)C(=O)N1)[C@@H](C)O` [Compound 148, [19CD]-isoGlu-RC()STATC()ATDRLAEFLHRSSSSF-Gly(Me)-A-Ile(Me)-LSSTEVGSETP-NH2] ({C20 diacid-γGlu}-RCSTATCATDRLAEFLHRSSSSF[Sar]A[NMeI]LSSTEVGSETP-NH2; disulfide 2-7), the EC50 [1, 4] is reported as 0.14 nM, the “Solubility, Acetate buffer pH 4” value [2] is reported as “SS (SS indicates solubility ≥ 1mg/ml)” and the “Solubility, Acetate buffer pH 5” value [2] is reported as “SS (SS indicates solubility ≥ 1mg/ml)”. The “Solubility, Histidine buffer pH 6” value [2] was “SS (SS indicates solubility ≥ 1mg/ml)”, the “Solubility, Histidine buffer pH 7” value [2] was “SS (SS indicates solubility ≥ 1mg/ml)” and the “Solubility, Phosphate buffer pH 6” value [2] was “SS (SS indicates solubility ≥ 1mg/ml)”. The “Solubility, Phosphate buffer pH 7” value [2] was “SS (SS indicates solubility ≥ 1mg/ml)”, the “Solubility, Phosphate buffer pH 7.5” value [2] was “SS (SS indicates solubility ≥ 1mg/ml)” and the EC50 [3, 5] was 0.17 nM.
